{"source": "patent US20240065999A1", "about": "“Ophthalmic Formulation Containing a Dopaminergic Prodrug that may be Combined with One or More Agents” (The Board of Trustees of the Leland Stanford Junior …, priority 2020, published 2024)", "key": {"[1]": {"system": "myopic progression", "settings": "ATOM trial, cited from earlier work"}, "[2]": {"settings": "pig, 24 h, 0.5 %", "text": "(§1) To assess the vitreous penetration, dopamine (dopamine hydrochloride; Sigma-Aldrich, St. Louis, Mo., USA), and etilevodopa (BOC Sciences, Shirley, N.Y., USA) were freshly dissolved in phosphate buffered saline solution (PBS, pH 7.4; Aniara, West Chester, Ohio, USA) at the concentration of 0.5%, whereas levodopa (Sigma-Aldrich) was freshly dissolved in distilled water at 0.5%. Thirty microliters of each solution was placed onto the cornea of enucleated porcine eyes (Animal Technologies, Tyler, Tex., USA; at least six porcine eyes were studied for each treatment), which were no more than 30 hours since enucleation and were maintained on ice throughout experimentation. PBS was used as a vehicle control. The vitreous humor sample was collected after 24 hours for quantitative measurement of dopaminergic derivative level using an enzyme-linked immunosorbent assay (ELISA) kit according to the manufacturers' protocol (dopamine ELISA kit; Immuno-Biological Laboratories, Inc., Minneapolis, Minn., USA)."}, "[3]": {"system": "rat eyes", "test": "Histology and immunohistochemistry (H&E, cleaved caspase-3, TUNEL) of rat eyes", "assay_type": "in vivo, Long Evans rat", "settings": "5 μL etilevodopa 10% once daily, 14 and 28 days", "method": "To assess for inflammation and apoptosis, 5 μL of etilevodopa 10% was administered as a once-daily eye drop to one eye of each rat, and the contralateral eye received PBS as a control. Rat eyes were enucleated at 14 and 28 days after treatment and fixed in 4% paraformaldehyde (VWR, Visalia, Calif., USA) overnight at 4° C., dehydrated in graded series of sucrose and alcohol, frozen, and cut into 12 μm sections onto glass slides.\nFor inflammation, frozen sections were first fixed in 10% formalin (Sigma-Aldrich) for 20 minutes and washed in water, followed by staining the nuclei with hematoxylin for three minutes and washing in water again. The slides were then dipped in lithium carbonate (bluing agent) for 45 seconds, washed in water, immersed in 95% ethanol (2-3 dips), and stained with eosin for another three minutes. After dehydrating in 95% ethanol for one minute and then in 100% ethanol for two minutes, the slides were mounted with Cytoseal 60 and imaged using Nikon Eclipse E800 microscope (Nikon Corp., Tokyo, Japan).\nFor apoptosis, sections were stained with cleaved caspase-3 (Cell Signaling, Beverly, Mass., USA). Briefly, sections were first washed with washing buffer (0.1% Triton X-100 in PBS) three times for five minutes each, blocked with 5% bovine serum albumin (Fraction V; Sigma-Aldrich) in washing buffer for one hour, followed by incubating in primary antibody-cleaved caspase-3 (1:200 in washing buffer) for two hours. After washing three times for five minutes each, sections were incubated in secondary antibody (AlexaFluor 488 donkey anti-rabbit IgG; 1:400; Invitrogen, Waltham, Mass., USA) in washing buffer for one hour, followed by washing another three times and mounting with 4′,6-diamidino-2-phenylindole (DAPI)-containing mounting media (Vectashield; Vector Laboratories, Burlingame, Calif., USA). Slides were imaged using Leica DMi8 microscope (Leica Microsystems Inc., Buffalo Grove, Ill., USA). Terminal deoxynucleotidyl transferase dUTP nick end labeling (TUNEL) assay was also performed to further detect apoptosis using TUNEL label mix kit (Sigma-Aldrich). […]"}, "[4]": {"test": "In vivo pharmacokinetics after a single topical treatment of etilevodopa 10% in Long Evans rat eyes", "settings": "single topical etilevodopa 10%, noncompartmental analysis", "method": "To assess the short-term pharmacokinetic effect, 5 μL of etilevodopa 10% was instilled onto a rat eye. At one, two, four, eight, and 24 hours, rats were sacrificed (at least three rats were studied at each time point). Serum was obtained by allowing the blood sample to clot at room temperature for 0.5 to 1 hour, followed by centrifuging at 13,000 rpm for 10 minutes (MiniSpin Eppendorf; Thermo Fisher Scientific, Waltham, Mass., USA). Serum was then frozen at −80° C. until tested. Eyes were enucleated and collected for quantitative measurement of dopaminergic derivative levels. Concentrations of dopaminergic derivative in both whole eye and vitreous/retina were measured for pharmacokinetic evaluation. Briefly, tissue samples were incubated with 150 μL lysis buffer (CelLytic MT Cell Lysis Reagent; Sigma-Aldrich) for 0.5 to 1 hour, followed by centrifuge at 13,000 rpm for 10 minutes, and the supernatant was collected. All samples were immediately frozen at −80° C. until tested. The level of dopaminergic derivative was measured in both serum and eye using a dopamine ELISA kit (Immuno-Biological Laboratories, Inc.) according to the manufacturer's instruction."}, "[5]": {"test": "Maximum solubility / achievable concentration of topical solutions", "assay_type": "physicochemical", "description": "PBS was used as a vehicle control."}, "[6]": {"test": "Observation of rat behavior during the 28-day study", "assay_type": "in vivo", "settings": "once-daily topical etilevodopa"}, "[7]": {"system": "Long Evans rat eyes", "test": "Clinical examination, OCT imaging and ERG after once-daily topical etilevodopa", "assay_type": "in vivo", "method": "Etilevodopa 10% 5 μL was administered as an eye drop once daily to one eye of each rat for 28 consecutive days, and the contralateral eye received PBS as a control. To assess the tolerability after administering etilevodopa over time, clinical examination was conducted at 14 and 28 days during treatment. To assess retinal structure and function, spectral-domain OCT (Spectralis HRA+OCT instrument; Heidelberg Engineering, Heidelberg, Germany) and full-field ERG (D300; Diagnosys LLC, Lowell, Mass., USA) were also performed at 14 and 28 days. Briefly, rats were first anesthetized with intraperitoneal injection of a mixture of ketamine hydrochloride (75 mg/kg; Hospira, Inc., Lake Forest, Ill., USA) and xylazine (5 mg/kg; Bedford Laboratories, Bedford, Ohio, USA). The corneas were topically anesthetized with tetracaine 0.5% (Alcon Laboratories, Inc. Fort Worth, Tex., USA), and the pupils were dilated with tropicamide 1% (Akorn, Inc., Lake Forest, Ill., USA) and phenylephrine hydrochloride 2.5% (Akorn, Inc.).\nFor clinical examination, 1% methylcellulose and a plastic coverslip were applied to the cornea to enhance visualization. A Zeiss OPMI MDO S5 Microscope (Prescott's, Inc., Monument, Col., USA) with an Excelis camera (ACCU-SCOPE, Inc., Commack, N.Y., USA) was used to digitally record ocular photos.\nFor OCT, 1% methylcellulose and a coverslip were placed on the anesthetized rat cornea. A commercially available 78-D double aspheric fundus lens (Volk Optical, Inc., Mentor, Ohio, USA) was mounted in front of the OCT and images were taken with proprietary software (Eye Explorer, version 3.2.1.0; Heidelberg Engineering). A raster scan of 19 equally spaced horizontal B-scans centered on the optic nerve was captured.\nFor full-field ERG, rats were dark-adapted overnight. A gold wire loop was placed on the cornea of both eyes, a reference electrode was placed subcutaneously on the nose, and a ground electrode was placed in the tail. ERG responses were recorded from both eyes simultaneously. The flash intensity was set at six increasing intensities of 0.0001, 0.001, 0.01, 0.1, 1, and 3 cd·s/m2. ERG recordings were averaged over 10 presentations of a single one-millisecond flash with a 10-second interstimulus interval. The A-wave amplitude was measured from the baseline to trough, while the B-wave was measured from the trough to peak."}, "[8]": {"test": "Ex vivo ocular penetration of dopamine and dopaminergic derivatives in enucleated porcine eyes (dopamine ELISA)", "settings": "topical", "text": "as §1"}, "[9]": {"settings": "ibopamine for hypotony, before 24 weeks; cited from earlier work"}, "[10]": {"system": "axial elongation", "test": "Reduction of axial elongation by levodopa in chicks (Thomson et al.)", "assay_type": "in vivo", "settings": "Gallus gallus; calculated using a chick vitreous volume of 200 μL; read-out: EC50 as intravitreal concentration"}, "[11]": {"system": "axial elongation", "settings": "chick, Thomson et al., cited from earlier work"}, "[12]": {"system": "intravitreal dopamine", "settings": "chick eyes with negative lenses, after three days of treatment; cited from earlier work"}, "[13]": {"settings": "1% atropine nightly in one eye over two years"}}, "note": "Counter-ions that a name gives are not always drawn. Like-named read-outs stand apart in the source and are kept apart here.", "data": [{"compound": "CN1[C@@H]2CC[C@H]1C[C@@H](OC(=O)C(CO)c1ccccc1)C2", "note": "(some centres unmarked) [atropine]", "values": [{"measurement": "diopter difference", "setting": "[1]; [13]", "value": "~+0.8 diopter"}, {"measurement": "reduction of myopic progression", "setting": "[1]; [13]", "value": 77, "unit": "%"}, {"measurement": "axial length", "setting": "[1]; 1% atropine nightly over two years", "value": "remained unchanged"}]}, {"compound": "NCCc1ccc(O)c(O)c1", "note": "[dopamine, dopamine hydrochloride]", "values": [{"measurement": "concentration of dopaminergic derivatives in the vitreous", "setting": "[2]", "value": 375.1, "unit": "ng/mL"}, {"measurement": "fold higher intravitreal concentration as compared to etilevodopa 10%", "setting": "[2]", "value": 10, "unit": "fold"}]}, {"compound": "CCOC(=O)[C@@H](N)Cc1ccc(O)c(O)c1", "note": "[etilevodopa]", "values": [{"measurement": "TUNEL+ DAPI+ cells", "setting": "[3]", "value": "no TUNEL+ DAPI+ cells observed"}, {"measurement": "hematoxylin and eosin staining of the retina", "setting": "[3]", "value": "no infiltration of inflammatory cells, fibrosis or morphological changes"}, {"measurement": "number of cleaved caspase-3+ DAPI+ cells, treatment vs control", "setting": "[3]", "value": "no statistically significant change"}, {"measurement": "AUC0→∞", "setting": "[4]; blood", "value": 11.2, "unit": "ng·h/mL"}, {"measurement": "AUC0→∞", "setting": "[4]; retina/vitreous", "value": 818, "unit": "ng·h/mL"}, {"measurement": "AUC0→∞", "setting": "[4]; whole eye", "value": 4300, "unit": "ng·h/mL"}, {"measurement": "maximum solubility", "setting": "[5]; PBS, pH 7.4", "value": 10, "unit": "%"}, {"measurement": "rat behavior (activity levels, aggression, feeding pattern, weight gain)", "setting": "[6]", "value": "no obvious changes in rat behavior"}, {"measurement": "direct toxicity", "setting": "[7]; four-week application as a topical eye drop", "value": "no evidence of direct toxicity"}, {"measurement": "ERG A-wave amplitude, treated vs control eyes", "setting": "[7]; in vivo", "value": "no statistically significant difference"}, {"measurement": "ERG B-wave amplitude, treated vs control eyes", "setting": "[7]; in vivo", "value": "no statistically significant difference"}, {"measurement": "OCT retinal structure", "setting": "[7]; in vivo", "value": "did not demonstrate any qualitative structural changes"}, {"measurement": "clinical eye photos (inflammatory response, corneal opacity, fundus abnormalities, conjunctival redness)", "setting": "[7]; in vivo", "value": "no evidence of inflammatory response, corneal opacity, fundus abnormalities, or conjunctival redness"}, {"measurement": "cornea and lens clarity", "setting": "[7]; in vivo", "value": "remained clear"}, {"measurement": "overall retina morphology and blood vessels", "setting": "[7]; in vivo", "value": "remained unchanged"}, {"measurement": "retinal detachment, edema or inflammation", "setting": "[7]; in vivo", "value": "No retinal detachment, edema or inflammation was observed"}, {"measurement": "corneal penetration as compared to levodopa at a given concentration", "setting": "[8]", "value": "did not exhibit enhanced corneal penetration"}]}, {"compound": "CNCCc1ccc(OC(=O)C(C)C)c(OC(=O)C(C)C)c1", "note": "[ibopamine]", "values": [{"measurement": "patients who stopped using the drug due to follicular conjunctivitis or irritation", "setting": "[9]", "value": "8 of 17"}]}, {"compound": "N[C@@H](Cc1ccc(O)c(O)c1)C(=O)O", "note": "[levodopa]", "values": [{"measurement": "maximum concentration achievable", "setting": "[5]; distilled water", "value": 0.5, "unit": "%"}, {"measurement": "EC50", "setting": "[10]", "value": "~7.9", "unit": "ng/mL"}, {"measurement": "concentration of dopaminergic derivatives in the vitreous", "setting": "[2]", "value": 11.9, "unit": "ng/mL"}, {"measurement": "EC50", "setting": "[11]; intravitreal administration, 10 μL dose, read-out: EC50 for a reduction of axial elongation", "value": 800, "unit": "nM"}, {"measurement": "EC50 for a reduction of axial elongation", "setting": "[11]; topical levodopa", "value": 0.05, "unit": "%"}]}, {"compound": "insulin (Insulin B chain AANQHLCGSHLVEALYLVCGERGFFYSPKA; Insulin A chain GIVEQCCHNTCSLYQLENYCN; UniProt P67970 25-54; P67970 87-107, looked up) [insulin injected into chick eyes treated with negative lenses]", "values": [{"measurement": "increase in intravitreal dopamine", "setting": "[12]", "value": 2, "unit": "fold"}]}]}
